Results as given in US20150051387A1, “WATER SOLUBLE PLATINUM COMPLEXES FOR TUMOR TREATMENT AND PROCESS OF PREPARING SAME” (GUDUI BIOPHARMA TECHNOLOGY INC., priority 2011, published 2015).

What was measured:
[1] = system: L1210 tumor cells; test: Antitumor efficacy in L1210 leukemia-bearing CDF1 mice (Experiment-2); format: in vivo; details: for Weight Changes: first day to seventh day
Protocol: In the following test, antitumor efficacy studies were performed using 8-9 weeks old female CDF1 mice, the average weight of the animal is 20-25 grams. L1210 tumor cells (about 10^5 cells per mouse) were inoculated intraperitoneally. The water-soluble platinum complexes were used to treat the tumor-bearing animals and the efficacy was compared compared with the clinical platinum antitumor drugs. […] Drugs were administered intraperitoneally on day 1 and day 4 after tumor cell transplantation. The number of experimental animals in each group was 6.
The experimental animals were purchased from Vital River Laboratory Animal Technology Co. Ltd., Tumor cells L1210-leukemia cells were purchased from Shanghai An Yan Commercial Trade Co. Ltd.
The increase in life span (ILS) is calculated as follows:
Wherein, St=the weighted median survival time of treated animals; Su=the weighted median survival time of untreated animals

[2] = Solubility in water at room temperature (Experiment-1)
[3] = 1.25 mg/Kg i.p. day 1 and day 4

N.N.O=C([O-])C1(C(=O)[O-])CCC1.[Pt+2] [Carboplatin, carboplatin]
Survival Animals on Day 42 ([1]; 24 mg/Kg i.p. day 1 and day 4): 0/6
Weight Changes ([1]; 24 mg/Kg i.p. day 1 and day 4): +0.6 g
Survival Animals on Day 42 ([1]; 40 mg/Kg i.p. day 1 and day 4): 0/6
Weight Changes ([1]; 40 mg/Kg i.p. day 1 and day 4): -0.4 g
Survival Animals on Day 42 ([1]; 80 mg/Kg i.p. day 1 and day 4): 1/6
Weight Changes ([1]; 80 mg/Kg i.p. day 1 and day 4): -1.2 g
solubility [2]: 16.6 mg/1 mL H2O

N.N.[Cl][Pt][Cl] [Cisplatin, cisplatin]
Survival Animals on Day 42 [1, 3]: 0/6
Weight Changes [1, 3]: +1.1 g
Survival Animals on Day 42 ([1]; 2.5 mg/Kg i.p. day 1 and day 4): 1/6
Weight Changes ([1]; 2.5 mg/Kg i.p. day 1 and day 4): -0.6 g
Survival Animals on Day 42 ([1]; 5.0 mg/Kg i.p. day 1 and day 4): 3/6
Weight Changes ([1]; 5.0 mg/Kg i.p. day 1 and day 4): -2.2 g

cis-[trans-(1R,2R)-diamino cyclohexane] Pt (II) (1-O-D-glucoside-propane-3-chloro-3,3-dicarboxylate) [Example 1]
ILS ([1]; 50 mg/Kg i.p. day 1 and day 4): >425%
Survival Animals on Day 42 ([1]; 50 mg/Kg i.p. day 1 and day 4): 6/6
Weight Changes ([1]; 50 mg/Kg i.p. day 1 and day 4): +1.1 g
ILS ([1]; 100 mg/Kg i.p. day 1 and day 4): >425%
Survival Animals on Day 42 ([1]; 100 mg/Kg i.p. day 1 and day 4): 6/6
Weight Changes ([1]; 100 mg/Kg i.p. day 1 and day 4): +0 g
ILS ([1]; 200 mg/Kg i.p. day 1 and day 4): >425%
Survival Animals on Day 42 ([1]; 200 mg/Kg i.p. day 1 and day 4): 6/6
Weight Changes ([1]; 200 mg/Kg i.p. day 1 and day 4): -0.4 g
